Source: PMC6241247, “Development and Application of an UHPLC-MS/MS Method for Comparative Pharmacokinetic Study of Eight Major Bioactive Components from Yin Chen Hao Tang in Normal and Acute Liver Injured Rats” (Evidence-based Complementary and Alternative Medicine : eCAM, 2018)

What was measured:
[1] = Plasma pharmacokinetics after oral administration of YCHT in control (normal) rats, UHPLC-MS/MS; assay type: in vivo, Sprague-Dawley rats; settings: for CL/F / Cmax / MRT inf / MRT last / Tmax / half-life: Sprague-Dawley
Text: The validated method was used for the pharmacokinetic study.
P<0.05 represented statistical significance.

[2] = Plasma pharmacokinetics after oral administration of YCHT in model (CCl4-induced acute liver injury) rats, UHPLC-MS/MS
Protocol: The quality control (QC) and plasma samples were analyzed by an Agilent 6470 triple quadrupole LC–MS system (Agilent Technologies, Inc., Santa Clara, CA, USA), which consists of an Agilent 1290 Infinity II system connected to a triple quadrupole MS analyzer with an Agilent Jet Stream technologies electrospray ionization (ESI) interface. The Agilent 1290 LC system is equipped with degasser (G7116B), high speed pump (G7120A) and multisampler (G7167B). The samples (2 μL) were injected into the LC system. A MassHunter workstation was applied for LC–MS control and data acquisition.
Chromatographic separation was conducted with a CAPCELL PAK ADME (2.1 mm × 100 mm, 3 μm; Shiseido Co., Ltd., Tokyo, Japan). The mobile phase included 0.1% formic acid (A) and methanol (B), and the flow rate was 0.3 mL/min. Iridoid glycosides and anthraquinones were detected in the isocratic elution, which was kept 80% B for 5.5 min in the negative mode. The others were separated in the positive mode with another gradient program, which was maintained at 45% B for 0.5 min, then increased to 95% B in 2 min, and maintained at 95% B until 4.5 min, and the post time is 2 min.
The optimal parameters for the ESI interface were as follows: nebulizer, 45 psi; dry gas, 10 L/min; dry temp, 350°C; sheath gas, 11 L/min; sheath gas temp, 350°C; capillary voltage, 4000 V (in the positive mode) and 3500 V (in the negative mode); and delta EMV, 200 V. The MS parameters for iridoid glycosides and anthraquinones were improved in the negative mode, and the MS parameters for the other analytes were improved in positive mode.
The animals were randomly divided into the control group (n = 6) and the model group (n = 6): the model rats, i.e., acute liver injury rats, were induced by intraperitoneal injections of CCl4 diluted with olive oil (1:1, v/v) at a dose of 1.5 mL/kg.bw every day for three days, and the rats in the control group were administered with olive oil.
After being thawed at room temperature, 100 μL plasma was put in a 1.5 mL centrifuge tube, and then 100 μL IS solution and 300 μL acetonitrile was added. After the mixture was vortexed for 1 min, it was centrifuged at 12000 rpm for 10 min at 4°C to precipitate the protein. Then the supernatant was transferred to another clean centrifuge tube, and evaporated to dryness under nitrogen stream, the residue was reconstituted in 50 μL methanol-water (1:1, v/v). After centrifuging at 12000 rpm for 10 min at 4°C again, a 2 μL aliquot of supernatant was injected for LC–MS/MS analysis.
The validated method was used for the pharmacokinetic study. Standard diet was withheld over night before oral administration of YCHT, but with free access to water. And YCHT (60 g/kg) was administered to the rats by gastric perfusion, equivalent to 10.09 mg/kg of scoparone, 0.49 mg/kg scopoletin, 17.16 mg/kg of geniposide, 9.86 mg/kg of rhein, 2.66 mg/kg of aloe-emodin, 2.24 mg/kg of chrysophanol, 0.83 mg/kg of emodin, and 0.58 mg/kg of physcion.
A series of blood samples (0.3 mL) were collected from the rats' postorbital venous plexuses at 0 (pre-dose), 5, 10, 15, 30, 45, 60, 90, 120, 240, 480, 600, 720 and 1440 min, and put into heparinized tubes. The heparinized plasma was immediately centrifuged to separate at 3000 g for 10 min and stored at −80°C before experiments. The analytes' concentrations in plasma were determined by LC–MS/MS methods described above.
The plasma concentrations were expressed as arithmetic mean ± standard deviation (SD). And the mean concentration–time curves were calculated and plotted by DAS (version 3.0, Bio Guider Co., Shanghai, China), and the PK parameters consist of elimination half-life (t1/2), area under the plasma concentration-time curve (AUC), and mean residence time (MRT). The maximum plasma concentrations (Cmax) and corresponding peak time (Tmax) were obtained from the observed data directly.

P-glycoprotein (P-gp) = system: P-glycoprotein (P-gp); set-up: method as in PMID 25776492, PMID 26121397; settings: cited from earlier work
[3] = control rats, oral YCHT 60 g/kg, plasma, n = 6
[4] = Fr = (AUCmodel/AUCcontrol)∗100%, oral YCHT 60 g/kg
[5] = Sprague-Dawley, rat, in vivo, po, 60 g/kg
[6] = model (CCl4 liver injured) rats, oral YCHT 60 g/kg, plasma, n = 6
[7] = rat, in vivo, control rats, oral YCHT 60 g/kg, plasma, n = 6, read-out: CLz/F (converted)
[8] = rat, in vivo, control rats, oral YCHT 60 g/kg, plasma, n = 6, read-out: Cmax
[9] = rat, in vivo, control rats, oral YCHT 60 g/kg, plasma, n = 6, read-out: MRT0–t
[10] = rat, in vivo, control rats, oral YCHT 60 g/kg, plasma, n = 6, read-out: MRT0–∞
[11] = rat, in vivo, control rats, oral YCHT 60 g/kg, plasma, n = 6, read-out: Tmax
[12] = rat, in vivo, control rats, oral YCHT 60 g/kg, plasma, n = 6, read-out: t 1/2 (converted)
[13] = Sprague-Dawley, rat, in vivo, po
[14] = Sprague-Dawley, rat, plasma, po, 60 g/kg

SMILES	CL/F ([1]; rat, in vivo, po, 60 g/kg) [mL/min/kg]	Cmax ([1]; rat, in vivo, po, 60 g/kg) [ng/mL]	MRT inf ([1]; rat, in vivo, po, 60 g/kg) [h]	MRT last ([1]; rat, in vivo, po, 60 g/kg) [h]	Tmax ([1]; rat, in vivo, po, 60 g/kg) [h]	half-life ([1]; rat, in vivo, po, 60 g/kg) [h]	AUC0–t [1, 3] [ug/L∗h]	AUC0–∞ [1, 3] [ug/L∗h]	Fr (relative bioavailability) [2, 4] [%]	CL/F [2, 5] [mL/min/kg]	Cmax [2, 5] [ng/mL]	MRT inf [2, 5] [h]	MRT last [2, 5] [h]	Tmax [2, 5] [h]	half-life [2, 5] [h]	AUC0–t [2, 6]	AUC0–∞ [2, 6]	CL/F [1, 7] [mL/min/kg]	MRT last [1, 9] [h]	MRT inf [1, 10] [h]	other results
O=C(O)c1cc(O)c2c(c1)C(=O)c1cccc(O)c1C2=O [Rhein]	82	664 ± 50.3	5.38 ± 0.49	4.79 ± 0.36	0.33 ± 0.13	4.64 ± 2.14	2031.40 ± 385.58	2074.39 ± 387.77	268.45	31.2	1760 ± 140	4.67 ± 0.65	4.38 ± 0.41	0.54 ± 0.19	3.62 ± 1.97	5453.29 ± 1202.14∗∗ ug/L∗h	5518.78 ± 1256.46∗∗ ug/L∗h				
Cc1cc(O)c2c(c1)C(=O)c1cc(O)cc(O)c1C2=O [Emodin]							10.41 ± 0.83	12.06 ± 1.53		1050	3.89 ± 0.89	6.64 ± 0.78	4.83 ± 0.25	0.17 ± 0.05	3.64 ± 0.79	11.66 ± 2.70 ug/L∗h	13.49 ± 2.43 ug/L∗h	1160	4.94 ± 0.26	6.65 ± 1.99	Cmax [1, 8]: 3.51 ± 0.59 ng/mL; Tmax [1, 11]: 0.2 ± 0.17 h; half-life [1, 12]: 3.33 ± 1.67 h; Fr (relative bioavailability) [2, 13]: 112.01%; P-gp substrate (P-glycoprotein (P-gp)): not P-gp substrates
Cc1cc(O)c2c(c1)C(=O)c1cccc(O)c1C2=O [Chrysophanol]	363	34.5 ± 4.99	3.34 ± 0.21	2.93 ± 0.16	0.63 ± 0.26	2 ± 0.23				257	37.6 ± 6.51	4.2 ± 0.77	3.43 ± 0.4	0.88 ± 0.35	3.12 ± 1.74						AUC0–t ([1]; rat, in vivo, po, 60 g/kg): 99.34 ± 10.12 ug/L∗h; AUC0–∞ ([1]; rat, in vivo, po, 60 g/kg): 103.57 ± 10.09 ug/L∗h; Fr (relative bioavailability) [2, 13]: 142.23%; AUC0–t ([2]; rat, in vivo, po, 60 g/kg): 141.29 ± 27.92∗∗ ug/L∗h; AUC0–∞ ([2]; rat, in vivo, po, 60 g/kg): 148.47 ± 25.04∗∗ ug/L∗h
COC(=O)C1=CO[C@@H](O[C@@H]2O[C@H](CO)[C@@H](O)[C@H](O)[C@H]2O)[C@@H]2C(CO)=CC[C@H]12 [Geniposide]							1940.63 ± 210.72	1958.65 ± 206.96	257.67	55.7	1860 ± 109	5.99 ± 0.61	4.68 ± 0.57	0.58 ± 0.2	6.59 ± 2.46	5000.36 ± 755.13∗∗ ug/L∗h	5223.83 ± 746.92∗∗ ug/L∗h	147	4.57 ± 0.41	4.8 ± 0.47	Cmax ([1]; rat, in vivo, 60 g/kg, normal group, oral YCHT, read-out: Cmax): 751 ± 47.7 ng/mL; Tmax [1, 11]: 0.33 ± 0.13 h; half-life [1, 12]: 3.55 ± 0.38 h
COc1cc2ccc(=O)oc2cc1O [Scopoletin]	1180	3.53 ± 0.67	6.9 ± 4.2	4.4 ± 0.44	0.19 ± 0.04	3.62 ± 3.85	5.86 ± 0.50	7.41 ± 2.53	123.38	1100	3.34 ± 1.19	5.56 ± 0.63	4.81 ± 0.43	0.13 ± 0.05	2.2 ± 0.82	7.23 ± 1.84 ug/L∗h	7.83 ± 2.00 ug/L∗h				P-gp substrate (P-glycoprotein (P-gp)): not P-gp substrates
COc1cc(O)c2c(c1)C(=O)c1cc(C)cc(O)c1C2=O [Physcion]	450	8.45 ± 1.61	3.54 ± 0.49	2.88 ± 0.25	1.25 ± 0.27	2.65 ± 0.99	21.05 ± 4.04	22.44 ± 5.54	213.68	211	9.99 ± 2.86	5.26 ± 1.3	4.07 ± 0.4	2.58 ± 1.11	3.06 ± 2.37	44.98 ± 13.92∗∗ ug/L∗h	48.47 ± 12.74∗∗ ug/L∗h				
O=C1c2cccc(O)c2C(=O)c2c(O)cc(CO)cc21 [Aloe-emodin]							54.61 ± 6.50	60.86 ± 6.68	281.30	283	36.7 ± 3.09	4.07 ± 0.4	3.68 ± 0.34	0.58 ± 0.3	1.98 ± 0.71	153.62 ± 18.13∗∗ ug/L∗h	158.71 ± 19.26∗∗ ug/L∗h	737	3.34 ± 0.12	4.33 ± 0.84	Cmax [1, 8]: 15.2 ± 1.68 ng/mL; Tmax [1, 11]: 0.54 ± 0.19 h; half-life [1, 12]: 2.26 ± 1.15 h
COc1cc2ccc(=O)oc2cc1OC [Scoparone]							2282.77 ± 390.03	2347.92 ± 428.69	227.64							5196.54 ± 513.37∗∗ ug/L∗h	5197.06 ± 513.33∗∗ ug/L∗h				CL/F ([1]; rat, control rats, oral YCHT 60 g/kg, plasma, n = 6, read-out: CLz/F (converted)): 73.7 mL/min/kg; Cmax ([1]; rat, control rats, oral YCHT 60 g/kg, plasma, n = 6, read-out: Cmax): 939 ± 112 ng/mL; MRT last ([1]; rat, control rats, oral YCHT 60 g/kg, plasma, n = 6, read-out: MRT0–t): 3.19 ± 0.16 h; MRT inf ([1]; rat, control rats, oral YCHT 60 g/kg, plasma, n = 6, read-out: MRT0–∞): 3.51 ± 0.14 h; Tmax ([1]; rat, control rats, oral YCHT 60 g/kg, plasma, n = 6, read-out: Tmax): 0.54 ± 0.1 h; half-life ([1]; rat, control rats, oral YCHT 60 g/kg, plasma, n = 6, read-out: t 1/2 (converted)): 2.14 ± 0.71 h; CL/F [2, 14]: 32.7 mL/min/kg; Cmax [2, 14]: 1770 ± 107 ng/mL; MRT inf [2, 14]: 3.95 ± 0.26 h; MRT last [2, 14]: 3.94 ± 0.26 h; Tmax [2, 14]: 0.33 ± 0.13 h; half-life [2, 14]: 1.58 ± 0.13 h; AUC in model rats higher than in normal rats ([2]; model vs normal rats, oral YCHT): approximately 2 fold
